Reference: patent US12448400B2, “KRAS G12D modulating compounds” (priority 2023, dated 2025)

How the values were obtained:
[1] = Mouse oral cassette pharmacokinetics; format: in vivo, male CD-1 mice; details: male, CD-1, mouse, in vivo, po, 30 mg/kg
Description: Mouse Oral Cassette Pharmacokinetics
Test compounds (1-3 compounds per cassette) were formulated in solution formulations (10 w/v % Captisol in 50 mM Citrate buffer) and administered orally at 30 mg-eq./kg each compound to a group of four male CD-1 mice. The test articles were administrated by oral gavage at a dose volume of 10 mL-eq/kg.
Blood samples were collected at 0.5, 1, 3, 6, 8, and 24 hours post dose into K2EDTA tubes and stored on wet ice until processed. Whole blood was processed to plasma by centrifugation (3500 rpm for 10 minutes at 5° C.) within 30 minutes of collection. Plasma samples were placed in Micronic 96 well tubes and stored at −80° C. until transferred. Plasma concentration of the test compounds was determined by LC-MS/MS. Pharmacokinetic parameters were estimated using non-compartment model analysis. The maximum observed concentration (Cmax) and area under the curve from time of dosing to last measured concentration (AUClast) were calculated and reported.

GDP-loaded KRAS G12D = GDP-loaded KRAS G12D (Homo sapiens, UniProt P01116, G12D); assay: KRAS G12D (GDP) biochemical assay, TR-FRET probe displacement; format: binding; details: 0.5 nM enzyme, 30 min pre-incubation, 2 h incubation, TR-FRET ratio; read-out: G12D IC50
Summary of the method: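 Compound pre-incubated 30 min with GDP-loaded KRAS G12D in 50 mM Hepes pH 7.4, 150 mM NaCl, 5 mM MgCl2, 0.005% Tween-20, then Eu-streptavidin and TR-FRET probe added. After 2 h at room temperature, TR-FRET ratio read; IC50 is 50% ratio decrease, sigmoidal fit.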

GP2D (KRAS G12D) cells = assay: 2D cell viability assay (CellTiter-Glo); format: cell-based; details: 96 h; GP2D cells, 4 days, CellTiter-Glo luminescence; read-out: G12D 2D EC50
Summary of the method: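 GP2D (KRAS G12D) cells, 1000/well in RPMI + 10% FBS, were plated onto compound (1:3 DMSO series) and grown 4 days at 37 °C, 5% CO2 in 2D. CellTiter-Glo luminescence was read; EC50 is the concentration giving 50% signal decrease, from sigmoidal fit.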

GDP-loaded KRAS G12D, sequence (P01116 1-188 isoform P01116-2 G12D): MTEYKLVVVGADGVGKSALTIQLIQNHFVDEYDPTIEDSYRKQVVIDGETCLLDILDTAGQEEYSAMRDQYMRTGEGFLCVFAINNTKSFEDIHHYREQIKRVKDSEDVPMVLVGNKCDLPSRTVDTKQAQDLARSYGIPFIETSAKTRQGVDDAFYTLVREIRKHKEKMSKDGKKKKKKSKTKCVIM

| SMILES | Mouse Parent AUC [1] | IC50 (GDP-loaded KRAS G12D) | EC50 (GP2D (KRAS G12D) cells) |
| --- | --- | --- | --- |
| C#Cc1c(F)ccc2cc(O)cc(-c3nc4c5c(nc(OC[C@@]67CCCN6C[C@H](F)C7)nc5c3F)N3C[C@H]5CC[C@@H]([C@H]3CC[C@H]4C)N5Cc3oc(=O)oc3C)c12 [Example 11, 4-(((4R,6aR,7S,10R)-2-(8-ethynyl-7-fluoro-3-hydroxynaphthalen-1-yl)-1-fluoro-13-(((2R,7aS)-2-fluorotetrahydro-1H-pyrrolizin-7a(5H)-yl)methoxy)-4-methyl-5,6,6a,7,8,9,10,11-octahydro-4H-3,11a,12,14,15-pentaaza-7,10-methanocyclohepta[4,5]cycloocta[1,2,3-de]naphthalen-15-yl)methyl)-5-methyl-1,3-dioxol-2-one] | 0.96 µM·h | 4.4 nM | 0.12 nM |
| C#Cc1c(F)ccc2cc(O)cc(-c3nc4c5c(nc(OC[C@@]67CCCN6C[C@H](F)C7)nc5c3F)N3C[C@H]5CC[C@H](N5)[C@H]3CC[C@H]4C)c12 [Example 11-P, 5-ethynyl-6-fluoro-4-((4R,6aR,7S,10R)-1-fluoro-13-(((2R,7aS)-2-fluorotetrahydro-1H-pyrrolizin-7a(5H)-yl)methoxy)-4-methyl-5,6,6a,7,8,9,10,11-octahydro-4H-3,11a,12,14,15-pentaaza-7,10-methanocyclohepta[4,5]cycloocta[1,2,3-de]naphthalen-2-yl)naphthalen-2-ol] | 0.14 µM·h | 0.09 nM | 0.09 nM |
| C#Cc1c(F)ccc2cc(O)cc(-c3nc4c5c(nc(OC[C@@]67CCCN6C[C@H](F)C7)nc5c3F)N3C[C@H]5CC[C@@H]([C@H]3CC[C@H]4C)N5Cc3oc(=O)oc3C(C)(C)C)c12 [Example 12, 4-(tert-butyl)-5-(((4R,6aR,7S,10R)-2-(8-ethynyl-7-fluoro-3-hydroxynaphthalen-1-yl)-1-fluoro-13-(((2R,7aS)-2-fluorotetrahydro-1H-pyrrolizin-7a(5H)-yl)methoxy)-4-methyl-5,6,6a,7,8,9,10,11-octahydro-4H-3,11a,12,14,15-pentaaza-7,10-methanocyclohepta[4,5]cycloocta[1,2,3-de]naphthalen-15-yl)methyl)-1,3-dioxol-2-one] | 0.2 µM·h | 73 nM | 0.28 nM |
| C#Cc1c(F)ccc2cc(O)cc(-c3nc4c5c(nc(OC[C@@]67CCCN6C[C@H](F)C7)nc5c3F)N3C[C@H]5CC[C@@H]([C@H]3CC[C@H]4C)N5Cc3oc(=O)oc3CCCCCCCC)c12 [Example 13, 4-(((4R,6aR,7S,10R)-2-(8-ethynyl-7-fluoro-3-hydroxynaphthalen-1-yl)-1-fluoro-13-(((2R,7aS)-2-fluorotetrahydro-1H-pyrrolizin-7a(5H)-yl)methoxy)-4-methyl-5,6,6a,7,8,9,10,11-octahydro-4H-3,11a,12,14,15-pentaaza-7,10-methanocyclohepta[4,5]cycloocta[1,2,3-de]naphthalen-15-yl)methyl)-5-octyl-1,3-dioxol-2-one] | 0.42 µM·h | 24 nM | 0.19 nM |
| C#Cc1c(F)ccc2cc(O)cc(-c3nc4c5c(nc(OC[C@@]67CCCN6C[C@H](F)C7)nc5c3F)N3C[C@H]5CC[C@@H]([C@H]3CCC4)N5Cc3oc(=O)oc3CCCCCC)c12 [Example 14, 4-(((6aR,7S,10R)-2-(8-ethynyl-7-fluoro-3-hydroxynaphthalen-1-yl)-1-fluoro-13-(((2R,7aS)-2-fluorotetrahydro-1H-pyrrolizin-7a(5H)-yl)methoxy)-5,6,6a,7,8,9,10,11-octahydro-4H-3,11a,12,14,15-pentaaza-7,10-methanocyclohepta[4,5]cycloocta[1,2,3-de]naphthalen-15-yl)methyl)-5-hexyl-1,3-dioxol-2-one] | 0.94 µM·h | 7.3 nM | 0.14 nM |
